Laboratory results reported in patent publication US20020019536A1, “NEW URETHANES, THIO AND DITHIO ANALOGUES AND THEIR USE AS INHIBITORS OF CHOLESTEROL BIOSYNTHESIS” (priority 1997, published 2002).

What was measured:
[1] = tested on: Trich. mentagrophytes ATCC 9129; assay: Fungistatic activity, series dilution test; type: cell-based; settings: Sabouraud broth, 2 to 4 days at 26° C.
Method: (§1) V. Determining the Fungistatic Activity
(§2) The fungistatic activity was determined by the series dilution test (microtitre system). Sabouraud broth was used as the nutrient medium. The inoculum amounted to about 10^4 to 10^5 CFU/ml (CFU=colony-forming units); the incubation period was 2 to 4 days at 26° C.
(§3) The lowest concentration which allows no visible growth (minimum inhibitory concentration MIC) was determined.
(§4) The abovementioned compounds B, E, G, I, K, L, N, Q and R were tested. The MIC is given in μg/ml.

[2] = tested on: Cand. albicans ATCC 10231; assay: Fungistatic activity, series dilution test; type: cell-based; settings: Sabouraud broth, 2 to 4 days at 26° C.
Method: as §1, §2, §3, §4

Pen. notatum CBS 19746 = assay: Fungistatic activity, series dilution test; type: cell-based; settings: Sabouraud broth, 2 to 4 days at 26° C.
Method: as §1, §2, §3, §4

Asp. niger ATCC 16404 = assay: Fungistatic activity, series dilution test; type: cell-based; settings: Sabouraud broth, 2 to 4 days at 26° C.
Method: as §1, §2, §3, §4

[3] = tested on: Sacch. carisbergensis ATCC 9080; assay: Fungistatic activity, series dilution test; type: cell-based; settings: Sabouraud broth, 2 to 4 days at 26° C.
Method: as §1, §2, §3, §4

Rhod. rubra 49 = assay: Fungistatic activity, series dilution test; type: cell-based; settings: Sabouraud broth, 2 to 4 days at 26° C.
Method: as §1, §2, §3, §4

[4] = biological target: T1, 2,3-epoxysqualene-lanosterol-cyclase (Rattus norvegicus, UniProt P48450); assay: In-vivo activity in the rat after oral administration: 2,3-epoxysqualene level in the liver
T1 construct: Measuring the in-vivo Activity in the Rat after Oral Administration; from tissue; host or cells: living rat; 2,3-epoxysqualene measured in the liver
T1 sequence (P48450 1-733): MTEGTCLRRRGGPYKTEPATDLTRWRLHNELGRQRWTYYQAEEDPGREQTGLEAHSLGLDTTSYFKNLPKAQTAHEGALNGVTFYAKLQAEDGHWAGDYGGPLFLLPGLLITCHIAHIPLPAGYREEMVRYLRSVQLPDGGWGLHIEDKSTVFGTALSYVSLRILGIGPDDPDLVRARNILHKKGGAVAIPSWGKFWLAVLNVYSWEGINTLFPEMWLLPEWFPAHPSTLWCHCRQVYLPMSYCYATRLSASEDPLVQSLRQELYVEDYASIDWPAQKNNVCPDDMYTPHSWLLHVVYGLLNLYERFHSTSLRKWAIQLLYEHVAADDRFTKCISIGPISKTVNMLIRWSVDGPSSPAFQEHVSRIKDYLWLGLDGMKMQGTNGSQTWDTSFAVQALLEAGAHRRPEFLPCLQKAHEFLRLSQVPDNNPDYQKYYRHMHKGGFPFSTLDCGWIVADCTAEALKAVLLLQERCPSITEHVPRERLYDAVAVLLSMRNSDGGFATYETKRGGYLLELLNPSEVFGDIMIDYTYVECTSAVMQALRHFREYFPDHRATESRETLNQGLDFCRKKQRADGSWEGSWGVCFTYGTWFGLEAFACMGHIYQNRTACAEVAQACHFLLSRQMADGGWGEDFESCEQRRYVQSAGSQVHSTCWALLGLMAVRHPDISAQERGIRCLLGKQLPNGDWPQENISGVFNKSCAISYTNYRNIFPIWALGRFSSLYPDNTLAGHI
Method: II. Measuring the in-vivo Activity in the Rat after Oral Administration
Inhibiting the enzyme 2,3-epoxysqualene-lanosterol-cyclase causes an increase in the 2,3-epoxisqualene levels in the liver and plasma. The quantity of 2,3-epoxysqualene formed therefore serves as a direct measurement of the potency on the animal as a whole. The amounts were determined using the method described in J. Lipid. Res. 38, 564-575, [1997] at t=3 or 8 hours after administration of the substance in concentrations of c=0.01, 0.03, 0.1, 0.3 and 1.0 mg/kg. Table 3 which follows gives the results obtained for the abovementioned substances A, B, C, E, G, H, O and R by way of example.
In the control animals there were no measurable 2,3-epoxisqualene levels under these conditions.

[5] = tested on: 14C-acetate incorporation into the steroids which can be precipitated with digitonin (cholesterol biosynthesis); assay: Inhibition of 14C-acetate incorporation into the steroids which can be precipitated with digitonin; type: cell-based; settings: for IC50: 14C-acetate incorporation
Text: I. Measuring the Inhibition of ^14C-acetate incorporation into the steroids which can be precipitated with digitonin: The inhibitory effect was investigated using the method described in J. Lipid. Res. 37, 148-157 [1996] at test concentrations of 10^−8 and 10^−9 mol/l.

[6] = Lipid reduction in the normolipaemic golden hamster; type: in vivo; settings: compared with control group
Method: III. Lipid Reduction in the Normolipaemic Golden Hamster This was determined using the method described in J. Lipid. Res. 38, 564-575, (1997). At the end of the experiment the total cholesterol, β-lipoprotein-cholesterol and HDL-cholesterol were determined and compared with the values of a control group which were fed without any test substance. The lipid-lowering activity of the abovementioned compounds E, G and I was tested.

[7] = tested on: HaCat cells (human keratinocytes); assay: Inhibition of cell proliferation (BrdU ELISA); type: cell-based; settings: 10^−6 mol/l, average of three measurements, given as a percentage of the control (control 100%)
Method: IV. Inhibition of Cell Proliferation
HaCat cells (human keratinocytes) are seeded at a density of 10,000 cells per well in a 96 well microtitre plate. The culture medium used is Dulbecco's modified eagle medium (DMEM) with the addition of 10% calf serum. The cells are incubated for two days in an incubator, then the test substance, dissolved in dimethyl sulphoxide and diluted with culture medium, is added. After another two days incubation, 5-bromo-2′-deoxyuridine is added and the test results are determined according to the instructions (Boehringer Mannheim, Cell proliferation ELISA, BrdU(colorimetric)). The BrdU measurement was carried out at 380-490 nm in the Plate Reader made by Bio Rad.
The proliferation-inhibiting activity of compounds E, G and H was investigated. The average of three measurements was calculated and the results are given as a percentage of the control (Table 5).

[8] = 0.01 mg/kg oral, 3 h after administration
[9] = 0.01 mg/kg oral, 8 h after administration
[10] = 0.03 mg/kg oral, 3 h after administration
[11] = 0.03 mg/kg oral, 8 h after administration
[12] = 0.1 mg/kg oral, 3 h after administration
[13] = 0.1 mg/kg oral, 8 h after administration
[14] = 0.3 mg/kg oral, 3 h after administration
[15] = 0.3 mg/kg oral, 8 h after administration

Compound | MIC Trich. [1] [µg/mL] | MIC Cand. [2] [µg/mL] | MIC Pen. (Pen. notatum CBS 19746) [µg/mL] | MIC Asp. (Asp. niger ATCC 16404) [µg/mL] | MIC Sacc. [3] [µg/mL] | MIC Rhod. (Rhod. rubra 49) [µg/mL] | 2,3-epoxysqualene concentration in the liver (rat) [4, 8] [µg/g] | 2,3-epoxysqualene concentration in the liver (rat) [4, 9] [µg/g] | 2,3-epoxysqualene concentration in the liver (rat) [4, 10] [µg/g] | 2,3-epoxysqualene concentration in the liver (rat) [4, 11] [µg/g] | 2,3-epoxysqualene concentration in the liver (rat) [4, 12] [µg/g] | 2,3-epoxysqualene concentration in the liver (rat) [4, 13] [µg/g] | 2,3-epoxysqualene concentration in the liver (rat) [4, 14] [µg/g] | 2,3-epoxysqualene concentration in the liver (rat) [4, 15] [µg/g] | IC50 [5] [nM] | percentage inhibition of 14C-acetate incorporation ([5]; test concentration 10^−8 mol/l) [%] | percentage inhibition of 14C-acetate incorporation ([5]; test concentration 10^−9 mol/l) [%] | also measured
CN(C)Cc1ccc([C@H]2CC[C@H](N(C)C(=O)Oc3ccc(Cl)cc3)CC2)cc1.Cl [E, trans-O-(4-chlorophenyl)-N-4-[4-(dimethylaminomethyl)-phenyl]cyclohexyl-N-methylcarbamate-hydrochloride] | 2 | 16 | 2 | 4 | 128 | 16 | 20.3 | 32.7 | 39.0 | 44.6 | 92.5 | 191.5 | 63.4 | 180.0 | 0.3 | −85 | −57 | HDL-cholesterol ([6]; dose 0.5 mg/kg/day): −18.2%; Total cholesterol ([6]; dose 0.5 mg/kg/day): −22.5%; β-Lipoprotein-cholesterol ([6]; dose 0.5 mg/kg/day): −27.5%; HDL-cholesterol ([6]; dose 1.5 mg/kg/day): −24.0%; Total cholesterol ([6]; dose 1.5 mg/kg/day): −34.1%; β-Lipoprotein-cholesterol ([6]; dose 1.5 mg/kg/day): −48.4%; HDL-cholesterol ([6]; dose 4.9 mg/kg/day): −25.1%; Total cholesterol ([6]; dose 4.9 mg/kg/day): −34.3%; β-Lipoprotein-cholesterol ([6]; dose 4.9 mg/kg/day): −45.1%; Cell proliferation (% of control) [7]: 19.6%
CN(C)Cc1ccc([C@H]2CC[C@H](N(C)C(=O)Oc3ccc(F)cc3)CC2)cc1.Cl [R, trans-N-4-[4-(dimethylaminomethyl)phenyl]cyclohexyl-O-(4-fluorophenyl)-N-methylcarbamate-hydrochloride] | 2 | 64 | 16 | 16 | 512 | 16 | 5.1 | 25.6 | 38.2 | 67.2 | 53.8 | 152.9 | 79.7 | 191.0 | 0.5 | −86 | −63 | 2,3-epoxysqualene concentration in the liver (rat) ([4]; 1.0 mg/kg oral, 3 h after administration): 106.2 µg/g; 2,3-epoxysqualene concentration in the liver (rat) ([4]; 1.0 mg/kg oral, 8 h after administration): 340.0 µg/g; HDL-cholesterol ([6]; dose 1.73 mg/kg/day): −19.7%; Total cholesterol ([6]; dose 1.73 mg/kg/day): −16.5%; β-Lipoprotein-cholesterol ([6]; dose 1.73 mg/kg/day): −14.3%; HDL-cholesterol ([6]; dose 6.37 mg/kg/day): −20.0%; Total cholesterol ([6]; dose 6.37 mg/kg/day): −27.8%; β-Lipoprotein-cholesterol ([6]; dose 6.37 mg/kg/day): −34.3%
